{"source": "patent US20120108501A1", "about": "“Protease Inhibitors” (priority 2009, published 2012)"}
{"experiment": "Pharmacokinetics of released PEGylated protease inhibitor following P.O. administration of prodrugs in rats", "assay_type": "in vivo, male Sprague-Dawley rats", "design": "AUCall Mean: concentration or dose not given beside the values; C24 Mean: unit not given here", "conditions": "concentration at 24 hours; mPEG3-atazanavir in plasma after PO administration of mPEG3-ATV or of the listed prodrug, rats (n = 4-5)", "method": "(§1) Pharmacokinetic analysis of protease inhibitors described herein was conducted. To evaluate the pharmacokinetics of PEGylated protease inhibitor conjugates with releasable lipophilic attachments, test compounds were administered to male Sprague-Dawley rats.\n(§2) At various times following test article administration, serial blood samples were collected from indwelling jugular vein catheters and transferred to micro-tubes containing 7.5 μL of 20% w/v K2EDTA as an anticoagulant. Following processing of the blood samples to plasma (10 minutes at 10000 rpm, Centrifuge Model: Kubota 3500), plasma concentrations of the test article or corresponding PEGylated molecule released from the test article was measured using LC-MS/MS methods. Pharmacokinetic parameters were estimated using noncompartmental methods."}
{"smiles": "CCCC(=O)O[C@@H](CN(Cc1ccc(-c2ccccn2)cc1)NC(=O)[C@@H](NC(=O)OC)C(C)(C)C)[C@H](Cc1ccccc1)NC(=O)[C@@H](NC(=O)OCCOCCOCCOC)C(C)(C)C", "note": "[C3H7CO-mPEG3-ATV, mPEG3-Atazanavir Butyrate]", "C24 Mean": 0.00}
{"experiment": "Pharmacokinetics of released PEGylated protease inhibitor following P.O. administration of prodrugs in rats", "assay_type": "in vivo, male Sprague-Dawley rats", "design": "AUCall Mean: concentration or dose not given beside the values; C24 Mean: unit not given here", "conditions": "concentration at 24 hours; mPEG5-atazanavir in plasma after PO administration of mPEG5-ATV or of the listed prodrug, rats (n = 4-5)", "method": "as §1, §2"}
{"smiles": "CCCC(=O)OC(CN(Cc1ccc(-c2ccccn2)cc1)NC(=O)C(NC(=O)OC)C(C)(C)C)C(Cc1ccccc1)NC(=O)C(NC(=O)OCCOCCOCCOCCOCCOC)C(C)(C)C", "note": "(stereo not shown) [C3H7CO-mPEG5-ATV, mPEG5-Atazanavir Butyrate]", "C24 Mean": 0.00}
{"smiles": "CCOCO[C@@H](CN(Cc1ccc(-c2ccccn2)cc1)NC(=O)[C@@H](NC(=O)OC)C(C)(C)C)[C@H](Cc1ccccc1)NC(=O)[C@@H](NC(=O)OCCOCCOCCOCCOCCOC)C(C)(C)C", "note": "[Methyl ethyl ether mPEG5-ATV, mPEG5-Atazanavir Methyl Ethyl Ether]", "C24 Mean": 2.7}
{"experiment": "Pharmacokinetics of released PEGylated protease inhibitor following P.O. administration of prodrugs in rats", "assay_type": "in vivo, male Sprague-Dawley rats", "design": "AUCall Mean: concentration or dose not given beside the values; C24 Mean: unit not given here", "conditions": "mPEG3-atazanavir in plasma after PO administration of mPEG3-ATV or of the listed prodrug, rats (n = 4-5)", "method": "as §1, §2", "units": {"AUCall Mean": "ng·h/mL", "Cmax Mean": "ng/mL", "MRT last Mean": "h", "Tmax* Median": "h"}}
{"smiles": "CCCCCCCCCCCCCCCCOCC(COP(=O)(O)OC(CN(Cc1ccc(-c2ccccn2)cc1)NC(=O)C(NC(=O)OC)C(C)(C)C)C(Cc1ccccc1)NC(=O)C(NC(=O)OCCOCCOCCOC)C(C)(C)C)OC", "note": "(stereo not shown) [PEG3-Atazanavir Monophospholipid, mPEG3-atazanavir monophospholipid]", "AUCall Mean": 7.72, "Cmax Mean": 18.7, "MRT last Mean": 0.640, "Tmax* Median": 0.250}
{"smiles": "COCCOCCOCCOC(=O)N[C@H](C(=O)N[C@@H](Cc1ccccc1)[C@H](CN(Cc1ccc(-c2ccccn2)cc1)NC(=O)[C@@H](NC(=O)OC)C(C)(C)C)OC(C)=O)C(C)(C)C", "note": "[Acetyl-mPEG3-ATV, O-Acetyl-mPEG3-Atazanavir]", "AUCall Mean": 5.63, "Cmax Mean": 2.43, "MRT last Mean": 1.01, "Tmax* Median": 0.750}
{"smiles": "COCCOCCOCCOC(=O)NC(C(=O)NC(Cc1ccccc1)C(CN(Cc1ccc(-c2ccccn2)cc1)NC(=O)C(NC(=O)OC)C(C)(C)C)OC(=O)C(N)C(C)C)C(C)(C)C.Cl", "note": "[mPEG3-ATV-L-valine, mPEG3-Atazanavir-L-valine HCl]", "AUCall Mean": 70.4, "Cmax Mean": 11.8, "MRT last Mean": 4.45, "Tmax* Median": 0.500}
{"smiles": "CCCC(=O)O[C@@H](CN(Cc1ccc(-c2ccccn2)cc1)NC(=O)[C@@H](NC(=O)OC)C(C)(C)C)[C@H](Cc1ccccc1)NC(=O)[C@@H](NC(=O)OCCOCCOCCOC)C(C)(C)C", "note": "[C3H7CO-mPEG3-ATV, mPEG3-Atazanavir Butyrate]", "AUCall Mean": 11.4, "Cmax Mean": 3.08, "MRT last Mean": 1.56, "Tmax* Median": 1.00}
{"smiles": "CCCCC(=O)OC(CN(Cc1ccc(-c2ccccn2)cc1)NC(=O)C(NC(=O)OC)C(C)(C)C)C(Cc1ccccc1)NC(=O)C(NC(=O)OCCOCCOCCOC)C(C)(C)C", "note": "(stereo not shown) [C4H9CO-mPEG3-ATV, C4H9CO-mPEG3-atazanavir]", "AUCall Mean": 40.1, "Cmax Mean": 7.42, "MRT last Mean": 3.00, "Tmax* Median": 1.25}
{"smiles": "COCCOCCOCCOC(=O)N[C@H](C(=O)N[C@@H](Cc1ccccc1)[C@H](CN(Cc1ccc(-c2ccccn2)cc1)NC(=O)[C@@H](NC(=O)OC)C(C)(C)C)OP(=O)(O)O)C(C)(C)C", "note": "[mPEG3-ATV-phosphate, mPEG3-atazanavir phosphate]", "AUCall Mean": 16.8, "Cmax Mean": 1.66, "MRT last Mean": 7.37, "Tmax* Median": 1.25}
{"smiles": "CCCCCC(=O)O[C@@H](CN(Cc1ccc(-c2ccccn2)cc1)NC(=O)[C@@H](NC(=O)OC)C(C)(C)C)[C@H](Cc1ccccc1)NC(=O)[C@@H](NC(=O)OCCOCCOCCOC)C(C)(C)C", "note": "[C5H11CO-mPEG3-ATV, C5H11CO-mPEG3-atazanavir]", "AUCall Mean": 33.9, "Cmax Mean": 7.51, "MRT last Mean": 2.78, "Tmax* Median": 2.00}
{"experiment": "Pharmacokinetics of released PEGylated protease inhibitor following P.O. administration of prodrugs in rats", "assay_type": "in vivo, male Sprague-Dawley rats", "design": "AUCall Mean: concentration or dose not given beside the values; C24 Mean: unit not given here", "conditions": "mPEG5-atazanavir in plasma after PO administration of mPEG5-ATV or of the listed prodrug, rats (n = 4-5)", "method": "as §1, §2", "units": {"AUCall Mean": "ng·h/mL", "Cmax Mean": "ng/mL", "MRT last Mean": "h", "Tmax Median": "h"}}
{"smiles": "CCCC(=O)OC(CN(Cc1ccc(-c2ccccn2)cc1)NC(=O)C(NC(=O)OC)C(C)(C)C)C(Cc1ccccc1)NC(=O)C(NC(=O)OCCOCCOCCOCCOCCOC)C(C)(C)C", "note": "(stereo not shown) [C3H7CO-mPEG5-ATV, mPEG5-Atazanavir Butyrate]", "AUCall Mean": 3.92, "Cmax Mean": 1.44, "MRT last Mean": 0.984, "Tmax Median": 1.00}
{"smiles": "CCCCC(=O)O[C@@H](CN(Cc1ccc(-c2ccccn2)cc1)NC(=O)[C@@H](NC(=O)OC)C(C)(C)C)[C@H](Cc1ccccc1)NC(=O)[C@@H](NC(=O)OCCOCCOCCOCCOCCOC)C(C)(C)C", "note": "[C4H9CO-PEG5-ATV, C4H9CO-mPEG5-atazanavir]", "AUCall Mean": 39.3, "Cmax Mean": 9.46, "MRT last Mean": 2.43, "Tmax Median": 0.750}
{"smiles": "COCCOCCOCCOCCOCCOC(=O)N[C@H](C(=O)N[C@@H](Cc1ccccc1)[C@@H](O)CN(Cc1ccc(-c2ccccn2)cc1)NC(=O)[C@@H](NC(=O)OC)C(C)(C)C)C(C)(C)C", "note": "[PEG5-ATV, mPEG5-atazanavir]", "AUCall Mean": 389, "Cmax Mean": 57.6, "MRT last Mean": 9.61, "Tmax Median": 0.750}
{"smiles": "CCOCO[C@@H](CN(Cc1ccc(-c2ccccn2)cc1)NC(=O)[C@@H](NC(=O)OC)C(C)(C)C)[C@H](Cc1ccccc1)NC(=O)[C@@H](NC(=O)OCCOCCOCCOCCOCCOC)C(C)(C)C", "note": "[Methyl ethyl ether mPEG5-ATV, mPEG5-Atazanavir Methyl Ethyl Ether]", "AUCall Mean": 489, "Cmax Mean": 95.1, "MRT last Mean": 6.19, "Tmax Median": 1.00}
{"smiles": "COCCOCCOCCOCCOCCOC(=O)NC(C(=O)NC(Cc1ccccc1)C(CN(Cc1ccc(-c2ccccn2)cc1)NC(=O)C(NC(=O)OC)C(C)(C)C)OC(=O)C(N)C(C)C)C(C)(C)C.Cl", "note": "[mPEG5-ATV-L-valine, mPEG5-Atazanavir-L-valine HCl]", "AUCall Mean": 9.14, "Cmax Mean": 1.09, "MRT last Mean": 6.89, "Tmax Median": 1.00}
{"smiles": "COCCOCCOCCOCCOCCOC(=O)N[C@H](C(=O)N[C@@H](Cc1ccccc1)[C@H](CN(Cc1ccc(-c2ccccn2)cc1)NC(=O)[C@@H](NC(=O)OC)C(C)(C)C)OP(=O)(O)O)C(C)(C)C", "note": "[mPEG5-ATV-phosphate, mPEG5-atazanavir phosphate]", "AUCall Mean": 23.1, "Cmax Mean": 1.52, "MRT last Mean": 10.9, "Tmax Median": 7.00}
{"experiment": "Pharmacokinetics of released PEGylated protease inhibitor following P.O. administration of prodrugs in rats", "assay_type": "in vivo, male Sprague-Dawley rats", "design": "AUCall Mean: concentration or dose not given beside the values; C24 Mean: unit not given here", "conditions": "mPEG6-atazanavir in plasma after PO administration of mPEG6-ATV or of the listed prodrug, rats (n = 4-5)", "method": "as §1, §2", "units": {"AUCall Mean": "ng·h/mL", "Cmax Mean": "ng/mL", "MRT last Mean": "h", "Tmax Median": "h"}}
{"smiles": "COCCOCCOCCOCCOCCOCCOC(=O)NC(C(=O)NC(Cc1ccccc1)C(CN(Cc1ccc(-c2ccccn2)cc1)NC(=O)C(NC(=O)OC)C(C)(C)C)OP(=O)(O)O)C(C)(C)C", "note": "(stereo not shown) [mPEG6-ATV-phosphate, mPEG6-atazanavir phosphate]", "AUCall Mean": 12.1, "Cmax Mean": 1.23, "MRT last Mean": 23.4, "Tmax Median": 6.13}
{"smiles": "CCNC(=O)OC(CN(Cc1ccc(-c2ccccn2)cc1)NC(=O)C(NC(=O)OC)C(C)(C)C)C(Cc1ccccc1)NC(=O)C(NC(=O)OCCOCCOCCOCCOCCOCCOC)C(C)(C)C", "note": "(stereo not shown) [mPEG6-ATV-ethylcarbamate, mPEG6-Atazanavir-NH-ethyl carbamate]", "AUCall Mean": 3.07, "Cmax Mean": 0.634, "MRT last Mean": 15.1, "Tmax Median": 1.00}
{"smiles": "CCCCCCCC(=O)OC(CN(Cc1ccc(-c2ccccn2)cc1)NC(=O)C(NC(=O)OC)C(C)(C)C)C(Cc1ccccc1)NC(=O)C(NC(=O)OCCOCCOCCOCCOCCOCCOC)C(C)(C)C", "note": "(stereo not shown) [C7H15CO-mPEG6-ATV, O-Octanoyl-mPEG6-Atazanavir]", "AUCall Mean": 66.0, "Cmax Mean": 11.1, "MRT last Mean": 4.47, "Tmax Median": 2.00}
{"smiles": "COCCOCCOCCOCCOCCOCCOC(=O)NC(C(=O)NC(Cc1ccccc1)C(CN(Cc1ccc(-c2ccccn2)cc1)NC(=O)C(NC(=O)OC)C(C)(C)C)OC(=O)C(CC(C)C)NC(=O)C(N)CC(C)C)C(C)(C)C.Cl", "note": "(stereo not drawn) [Leu-Leu-mPEG6-ATV, Leu-Leu-mPEG6-Atazanavir Hydrochloride]", "AUCall Mean": 152, "Cmax Mean": 14.2, "MRT last Mean": 13.1, "Tmax Median": 1.50}
{"smiles": "COCCOCCOCCOCCOCCOCCOC(=O)NC(C(=O)NC(Cc1ccccc1)C(CN(Cc1ccc(-c2ccccn2)cc1)NC(=O)C(NC(=O)OC)C(C)(C)C)OC(=O)CNC(=O)C(N)C(C)C)C(C)(C)C.Cl", "note": "(stereo not drawn) [Val-Gly-mPEG6-ATV, Val-GIy-mPEG6-Atazanavir Hydrochloride]", "AUCall Mean": 194, "Cmax Mean": 5.11, "MRT last Mean": 24.3, "Tmax Median": 7.00}
{"smiles": "COCCOCCOCCOCCOCCOCCOC(=O)NC(C(=O)NC(Cc1ccccc1)C(CN(Cc1ccc(-c2ccccn2)cc1)NC(=O)C(NC(=O)OC)C(C)(C)C)OC(=O)C(N)C(C)C)C(C)(C)C.Cl", "note": "[mPEG6-ATV-L-valine, mPEG6-Atazanavir-L-Valine HCl]", "AUCall Mean": 73.1, "Cmax Mean": 4.05, "MRT last Mean": 18.9, "Tmax Median": 12.0}
{"smiles": "COCCOCCOCCOCCOCCOCCOC(=O)NC(C(=O)NC(Cc1ccccc1)C(CN(Cc1ccc(-c2ccccn2)cc1)NC(=O)C(NC(=O)OC)C(C)(C)C)OC(C)=O)C(C)(C)C", "note": "(stereo not shown) [Acetyl-mPEG6-Atazanavir, O-Acetyl-mPEG6-Atazanavir]", "AUCall Mean": 150, "Cmax Mean": 10.3, "MRT last Mean": 13.8, "Tmax Median": 6.00}
{"smiles": "COCCOCCOCCOCCOCCOCCOC(=O)NC(C(=O)NC(Cc1ccccc1)C(CN(Cc1ccc(-c2ccccn2)cc1)NC(=O)C(NC(=O)OC)C(C)(C)C)OC(=O)COCCOC(=O)C(Cc1ccccc1)NC(=O)C(N)Cc1ccccc1)C(C)(C)C", "note": "(stereo not shown) [mPEG6-ATV-CME-Phe-Phe, mPEG6-atazanavir-ethoxy-CME-Phe-Phe]", "AUCall Mean": 102, "Cmax Mean": 7.06, "MRT last Mean": 21.4, "Tmax Median": 3.25}
{"smiles": "COCCOCCOCCOCCOCCOCCOC(=O)N[C@H](C(=O)N[C@@H](Cc1ccccc1)[C@H](CN(Cc1ccc(-c2ccccn2)cc1)NC(=O)[C@@H](NC(=O)OC)C(C)(C)C)OC(=O)CNC(=O)[C@@H](N)Cc1ccccc1)C(C)(C)C.Cl", "note": "[Phe-Gly-mPEG6-ATV, Phe-Gly-mPEG6-Atazanavir Hydrochloride]", "AUCall Mean": 217, "Cmax Mean": 8.86, "MRT last Mean": 26.1, "Tmax Median": 24.0}
